From patent US20240384250A1, “FIBROBLAST GROWTH FACTOR 23 MODULATING COMPOUNDS” (THE UAB RESEARCH FOUNDATION, priority 2021, published 2024)
“Also recorded” adds a separate entry of the source.

How the values were obtained:
[1] = target: T1, FGFR4 (Homo sapiens, UniProt P22455); assay: Surface plasmon resonance, heparin immobilized on chip; format: binding; conditions: SPR
T1 construct: Fc-FGFR4 protein (human ectodomain) was immobilized; purchased R&D Systems 685FR050
Description: For the direct quantitative analysis of label-free molecular interactions in real time, surface plasmon resonance studies were conducted using BIAcore T200 and T200 evaluation software (28975001, Cytiva). Sensor SA (BR100398) and CMS chips (BR100399) were from Cytiva. For the preparation of heparin chips, heparin (2 mg) and amine-PEG3-Biotin (2 mg, 21347, Pierce) were dissolved in 200 μl of H2O and 10 mg of NaCNBH3 was added. The reaction mixture was heated at 70° C. for 24 hours; an additional 10 mg of NaCNBH3 was added; and the reaction was heated at 70° C. for another 24 hours. After cooling to room temperature, the mixture was desalted with the spin column (3000 MWCO). Biotinylated heparin was collected, freeze dried, and used for chip preparation. Biotinylated heparin was immobilized to streptavidin chips according to the manufacturer's protocol. In brief, 20 μl of biotinylated heparin solution (0.1 mg/ml) in HBS-P running buffer (0.01 M N-2-hydroxyethylpiperazine-N′-2-ethanesulfonic acid, 0.15 M NaCl, 0.005% surfactant P20 [pH7.4]; BR100368, Cytiva) was injected over flow cell 2 of the streptavidin chip at a flow rate of 10 μl/min. The successful immobilization of heparin was confirmed by the observation of an approximately 200-resonance unit increase in the sensor chip. The control flow cell (flow cell 1) was prepared by 1-minute injection with saturated biotin. For the preparation of FGFR4 chips, Fc-FGFR4 protein (human ectodomain) was immobilized on research grade CMS chips according to the standard amine coupling protocol. Briefly, carboxymethyl groups on the CMS chip surface were first activated using an injection pulse of […] of an equimolar mix of N-ethyl-N-(dimethylaminopropyl) carbodiimide and N-hydroxysuccinimide (final concentration 0.05 M, mixed immediately before injection). After activation, FGFR4 was diluted to […] in 100 mM sodium acetate (pH 5.5) buffer and injected over the activated biosensor surface. Excess unreacted sites on the sensor surface were deactivated with a 35 μl injection of 1 M ethanolamine. A reference flow cell was prepared using an injection pulse of […] of an equimolar mix of N-ethyl-N-(dimethylaminopropyl) carbodiimide and N-hydroxysuccinimide (final concentration 0.05 M, mixed immediately before injection) followed by a 35 μl injection of 1 M ethanolamine. For the measurement of interactions between FGF23 (human protein), FGFR4 (human ectodomain protein), klotho (human ectodomain, self-made; see above), and heparin, samples were diluted in HBS-P buffer. Different dilutions of protein were injected at a flow rate of 30 μl/min with HBS-P buffer as running buffer. At the end of the sample injection, HBS-P buffer was flowed over the sensor surface to facilitate dissociation. After a 3-minute dissociation time, the sensor surface was regenerated by injecting with 30 μl of 2 M NaCl to get a fully regenerated surface. The response was monitored as a function of time (sensorgram) at 25° C.

[2] = target: T2, FGF23 binding to FGFR1c (Homo sapiens, UniProt P11362+Q9GZV9); assay: Pull-down of FGF23 with Fc-FGFR on protein A/G beads with sKL, heparin or PBS; conditions: with heparin, or alone
T2 construct: Fc-coupled FGFR ectodomains were immobilized on protein A/G beads; purchased R&D Systems 2604FG025/CF or 2629FG025/CF; 658FR050
T2 sequence (Q9GZV9 25-251): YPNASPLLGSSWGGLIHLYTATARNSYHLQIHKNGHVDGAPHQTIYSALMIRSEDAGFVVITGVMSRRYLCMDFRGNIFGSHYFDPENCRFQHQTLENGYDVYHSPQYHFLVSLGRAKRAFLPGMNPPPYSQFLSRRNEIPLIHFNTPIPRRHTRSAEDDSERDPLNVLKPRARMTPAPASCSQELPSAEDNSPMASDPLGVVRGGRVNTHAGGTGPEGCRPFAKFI
T2 sequence (P11362 22-376 limits assumed): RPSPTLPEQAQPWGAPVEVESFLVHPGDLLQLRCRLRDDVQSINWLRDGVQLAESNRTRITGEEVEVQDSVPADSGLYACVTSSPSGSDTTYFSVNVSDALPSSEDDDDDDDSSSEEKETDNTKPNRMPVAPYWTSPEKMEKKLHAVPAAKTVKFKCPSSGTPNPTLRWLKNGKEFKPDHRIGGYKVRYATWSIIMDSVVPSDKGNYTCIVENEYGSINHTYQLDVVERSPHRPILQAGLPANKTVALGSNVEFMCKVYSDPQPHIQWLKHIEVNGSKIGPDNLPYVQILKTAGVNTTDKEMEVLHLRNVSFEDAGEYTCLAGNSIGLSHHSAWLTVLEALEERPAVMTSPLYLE
Description: (§1) To study the interaction between Fc-tagged FGFR isoforms (Fc-FGFR), FGF isoforms, and sKL, immunoprecipitation studies were conducted. Protein A beads (6501, BioVision) and protein G beads (6511, BioVision) were used at 25 μl of a 50% stock slurry per sample in a total bead volume of 50 μl. Beads were washed 5× in activity buffer (50 mM Tris [pH 7.4], 200 mM NaCl, 0.01% Tween 20). Bead spin-down assays were all performed for 2 minutes at 5000 g. Beads were resuspended in 1 ml of activity buffer in a 1.5-ml snap cap tube. One microgram of Fc-FGFR1 to 4 was incubated with the beads for 1 hour on a bead rotator. Control samples were incubated with 2 μg of anti-FGF antibody instead of Fc-FGFR. Beads were then pelleted at 5000 g for 2 minutes and washed 5× with activity buffer. Beads were resuspended and incubated with different combinations of 500 ng of FGF, 1 μg of sKL, 1.6 United States Pharmacopeia (USP) units of heparin, or phosphate-buffered saline (PBS). Beads were incubated for 1 hour on a tube rotator, and beads were pelleted and washed as before. One hundred microliters of 1× Laemmli sample buffer (1610737, Bio-Rad) with 1.42 M 2-mercaptoethanol was added, and samples were boiled for 5 minutes. Samples were analyzed using SDS-PAGE and Western blotting.
(§2) The sample (20 μl) was loaded onto Mini-PROTEAN TGX Precast Gel 4-20% for experiments with <9 samples (4568094, Bio-Rad) or Criterion TGX Precast Gel 4-20% (5678094, Bio-Rad) for experiments with >9 samples. Gels were run in 1× Tris/Glycine/SDS buffer (1610732, Bio-Rad) at 150 V and stopped when the sample dye reached the end of the gel. Gels were removed and electrotransferred via a semi-dry cassette (1703940, Bio-Rad) in I× Tris/Glycine buffer (1610734, Bio-Rad) with 20% methanol. Gels were transferred onto polyvinylidene diflouride membranes (IPVH00010, Millipore) at 20 V for 1 hour. Membranes were then blocked in 5% dried milk with 0.5% Tween 20 diluted in Tris-buffered saline (TBST; pH 7.5) for 1 hour and probed with antibodies against specific antigens at 1:1000 in TBST with 5% dried milk. Blots were washed 3× for 5 minutes in TBST and probed with HRP-coupled secondary antibodies against specific species at 1:10,000 in TBST with 5% dried milk. Membranes were imaged on the SRX-101A X-ray film developer (Konica Minolta).

[3] = target: T3, FGF23 binding to FGFR3c (Homo sapiens, UniProt P22607+Q9GZV9); assay: as above; conditions: with heparin, or alone
T3 construct: Fc-coupled FGFR ectodomains were immobilized on protein A/G beads; purchased R&D Systems 2604FG025/CF or 2629FG025/CF; 766FR050
T3 sequence (Q9GZV9 25-251): as the sequence (Q9GZV9 25-251) above
T3 sequence (P22607 23-375 limits assumed): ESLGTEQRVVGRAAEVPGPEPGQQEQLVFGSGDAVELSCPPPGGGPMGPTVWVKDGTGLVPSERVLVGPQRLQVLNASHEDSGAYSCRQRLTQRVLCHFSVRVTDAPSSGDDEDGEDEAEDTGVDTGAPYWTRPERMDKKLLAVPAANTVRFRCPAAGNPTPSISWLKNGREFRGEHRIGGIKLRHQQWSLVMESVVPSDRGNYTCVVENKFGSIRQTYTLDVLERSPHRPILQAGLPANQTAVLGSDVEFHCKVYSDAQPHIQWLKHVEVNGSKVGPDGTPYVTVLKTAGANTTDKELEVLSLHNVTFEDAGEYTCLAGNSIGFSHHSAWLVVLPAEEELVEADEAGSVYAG
Description: as §1, §2

[4] = target: T4, FGF23 binding to FGFR4 (Homo sapiens, UniProt P22455+Q9GZV9); assay: as above; conditions: with heparin, or alone
T4 construct: Fc-coupled FGFR ectodomains were immobilized on protein A/G beads; purchased R&D Systems 2604FG025/CF or 2629FG025/CF; 685FR050
T4 sequence (Q9GZV9 25-251): as the sequence (Q9GZV9 25-251) above
T4 sequence (P22455 22-369 limits assumed): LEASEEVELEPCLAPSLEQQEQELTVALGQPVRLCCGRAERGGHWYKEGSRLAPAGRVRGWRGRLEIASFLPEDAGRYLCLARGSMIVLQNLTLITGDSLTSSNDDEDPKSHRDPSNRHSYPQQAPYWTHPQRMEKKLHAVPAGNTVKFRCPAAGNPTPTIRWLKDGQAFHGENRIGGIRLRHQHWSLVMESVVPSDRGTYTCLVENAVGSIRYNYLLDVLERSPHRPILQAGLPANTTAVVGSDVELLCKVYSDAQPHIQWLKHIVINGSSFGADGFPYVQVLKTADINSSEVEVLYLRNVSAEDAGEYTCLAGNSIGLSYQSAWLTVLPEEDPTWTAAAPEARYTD
Description: as §1, §2

[5] = target: T5, FGF23 binding to FGFR2c (Homo sapiens, UniProt P21802); assay: as above; conditions: with heparin, or alone
T5 construct: Fc-coupled FGFR ectodomains were immobilized on protein A/G beads; purchased R&D Systems 2604FG025/CF or 2629FG025/CF; 712FR050
T5 sequence (P21802 22-377 limits assumed): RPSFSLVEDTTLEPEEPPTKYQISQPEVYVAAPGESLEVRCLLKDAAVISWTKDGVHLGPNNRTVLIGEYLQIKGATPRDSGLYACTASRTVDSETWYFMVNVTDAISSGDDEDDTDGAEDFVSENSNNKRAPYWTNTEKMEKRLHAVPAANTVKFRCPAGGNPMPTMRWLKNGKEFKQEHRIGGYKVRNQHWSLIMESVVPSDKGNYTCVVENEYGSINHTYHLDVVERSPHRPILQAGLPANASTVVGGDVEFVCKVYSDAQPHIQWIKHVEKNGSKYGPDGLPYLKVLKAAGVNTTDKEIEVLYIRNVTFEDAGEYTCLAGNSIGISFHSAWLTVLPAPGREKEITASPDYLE
Description: as §1, §2

T1 sequence (P22455 22-369 limits assumed): as the sequence (P22455 22-369 limits assumed) above

- ka ([1]; 25° C.): 1.2 × 10^6 1/MS
- Kd ([1]; read-out: dissociation constant KD): 2.8 nM
- FGF23 co-precipitation with Fc-FGFR1c [2]: weaker FGF23 binding
- FGF23 co-precipitation with Fc-FGFR3c [3]: weaker FGF23 binding
- FGF23 co-precipitation with Fc-FGFR2c [5]: weaker FGF23 binding
Substance: heparin [reference compound]
- FGF23 co-precipitation with Fc-FGFR4 [4]: efficiently coprecipitates FGF23; also recorded: increased binding of FGF23 to FGFR4
